Measured values as given in US10857102B2, “Therapeutic compositions comprising rilpivirine HCL and tenofovir disoproxil fumarate” (priority 2010, dated 2020).

Assay: Rilpivirine dissolution rate (laboratory data, FIG. 9)
Type: physicochemical
Source text: Formulation 3 and Formulation 4 differ in the weight of extragranular excipients and in the amount of croscarmellose sodium present. […] It may be postulated that the higher amounts of diluents in the rilpivirine layer of Formulation 3 that was bioequivalent to the rilpivirine single agent reference tablet could have served to lessen the extent of contact and interactions between rilpivirine and emtricitabine and/or tenofovir DF and achieve bioequivalence.
In addition, the higher amount of croscarmellose sodium, a superdisintegrant, leads to faster layer disintegration and separation of the rilpivirine layer from the emtricitabine/tenofovir DF layer minimizing any potential interactions between rilpivirine with emtricitabine and/or tenofovir DF. […] This is possibly due to the basifying nature of this excipient.

rilpivirine dissolution rate (higher concentrations of croscarmellose sodium in the rilpivirine layer, FIG. 9): decreased
intrinsic dissolution rate of rilpivirine (in the presence of emtricitabine and/or tenofovir DF): increased
SMILES: Cc1cc(/C=C/C#N)cc(C)c1Nc1ccnc(Nc2ccc(C#N)cc2)n1.Cl [rilpivirine, Rilpivirine HCl]
